{
  "source": "patent US20050043315A1",
  "about": "“Aminopyrimidine compounds, processes for their preparation and pharmaceutical compositions containing them” (priority 2002, published 2005)",
  "data": [
    {"units": {"melting point": "°C"}, "values": [
      {"smiles": "CC(C)n1nc(-c2cnc(N)nc2-c2cccnc2)ccc1=O", "note": "[Example 52, 6-[2-Amino-4-(3-pyridinyl)-5-pyrimidinyl]-2-isopropyl-3(2H)-pyridazinone]", "melting point": 204},
      {"smiles": "CC(C)n1nc(-c2cnc(N)nc2-c2ccncc2)ccc1=O", "note": "[Example 53, 6-[2-Amino-4-(4-pyridinyl)-5-pyrimidinyl]-2-isopropyl-3(2H)-pyridazinone]", "melting point": 219},
      {"smiles": "CC(C)n1nc(-c2cnc(N)nc2-c2cccs2)ccc1=O", "note": "[Example 55, 6-(2-Amino-4-(2-thienyl)-5-pyrimidinyl]-2-isopropyl-3(2H)-pyridazinone]", "melting point": 213},
      {"smiles": "Cc1ccccc1-c1nc(N)ncc1-c1ccc(=O)n(C(C)C)n1", "note": "[Example 56, 6-[2-Amino-4-(2-methylphenyl)-5-pyrimidinyl]-2-isopropyl-3(2H)-pyridazinone]", "melting point": 203},
      {"smiles": "Cc1cccc(-c2nc(N)ncc2-c2ccc(=O)n(C(C)C)n2)c1", "note": "[Example 57, 6-[2-Amino-4-(3-methylphenyl)-5-pyrimidinyl]-2-isopropyl-3(2H)-pyridazinone]", "melting point": 198},
      {"smiles": "COc1ccccc1-c1nc(N)ncc1-c1ccc(=O)n(C(C)C)n1", "note": "[Example 58, 6-[2-Amino-4-(2-methoxyphenyl)-5-pyrimidinyl]-2-isopropyl-3(2H)-pyridazinone]", "melting point": 170},
      {"smiles": "COc1cccc(-c2nc(N)ncc2-c2ccc(=O)n(C(C)C)n2)c1", "note": "[Example 59, 6-[2-Amino-4-(3-methoxyphenyl)-5-pyrimidinyl]-2-isopropyl-3(2H)-pyridazinone]", "melting point": 211},
      {"smiles": "COc1ccc(-c2nc(N)ncc2-c2ccc(=O)n(C)n2)cc1", "note": "[Example 60, 6-[2-Amino-4-(4-methoxyphenyl)-5-pyrimidinyl]-2-methyl-3(2H)-pyridazinone]", "melting point": 259},
      {"smiles": "Cn1nc(-c2cnc(N)nc2-c2ccc(Cl)cc2)ccc1=O", "note": "[Example 61, 6-[2-Amino-4-(4-chlorophenyl)-5-pyrimidinyl]-2-methyl-3(2H)-pyridazinone]", "melting point": 264},
      {"smiles": "Cn1nc(-c2cnc(N)nc2-c2cccc(F)c2)ccc1=O", "note": "[Example 62, 6-[2-Amino-4-(3-fluorophenyl)-5-pyrimidinyl]-2-methyl-3(2H)-pyridazinone]", "melting point": 212.5},
      {"smiles": "COc1ccc(-c2nc(N)ncc2-c2ccc(=O)n(C)n2)cc1F", "note": "[Example 63, 6-(2-Amino-4-(3-fluoro-4-methoxyphenyl)-5-pyrimidinyl]-2-methyl-3(2H)-pyridazinone]", "melting point": 245},
      {"smiles": "Cn1nc(-c2cnc(N)nc2-c2ccco2)ccc1=O", "note": "[Example 64, 6-[2-Amino-4-(2-furyl)-5-pyrimidinyl]-2-methyl-3(2H)-pyridazinone]", "melting point": 234},
      {"smiles": "Cc1ccc(-c2nc(N)ncc2-c2ccc(=O)n(C)n2)cc1", "note": "[Example 65, 6-[2-Amino-4-(4-methylphenyl)-5-pyrimidinyl]-2-methyl-3(2H)-pyridazinone]", "melting point": 230},
      {"smiles": "Cn1nc(-c2cnc(N)nc2-c2ccc(F)c(F)c2)ccc1=O", "note": "[Example 66, 6-[2-Amino-4-(3,4-difluorophenyl)-5-pyrimidinyl]-2-methyl-3(2H)-pyridazinone]", "melting point": 231},
      {"smiles": "COc1ccc(-c2nc(N)ncc2-c2ccc(=O)n(C)n2)cc1OC", "note": "[Example 67, 6-[2-Amino-4-(3,4-dimethoxyphenyl)-5-pyrimidinyl]-2-methyl-3(2H)-pyridazinone]", "melting point": 232},
      {"smiles": "Cn1nc(-c2cnc(N)nc2-c2ccc(Cl)c(Cl)c2)ccc1=O", "note": "[Example 68, 6-[2-Amino-4-(3,4-dichlorophenyl)-5-pyrimidinyl]-2-methyl-3(2H)-pyridazinone]", "melting point": 238},
      {"smiles": "Cn1nc(-c2cnc(N)nc2-c2cccs2)ccc1=O", "note": "[Example 69, 6-[2-Amino-4-(2-thienyl)-5-pyrimidinyl]-2-methyl-3(2H)-pyridazinone]", "melting point": 270},
      {"smiles": "Cc1ccccc1-c1nc(N)ncc1-c1ccc(=O)n(C)n1", "note": "[Example 70, 6-[2-Amino-4-(2-methylphenyl)-5-pyrimidinyl]-2-methyl-3(2H)-pyridazinone]", "melting point": 229},
      {"smiles": "Cc1cccc(-c2nc(N)ncc2-c2ccc(=O)n(C)n2)c1", "note": "[Example 71, 6-[2-Amino-4-(3-methylphenyl)-5-pyrimidinyl]-2-methyl-3(2H)-pyridazinone]", "melting point": 214},
      {"smiles": "COc1ccccc1-c1nc(N)ncc1-c1ccc(=O)n(C)n1", "note": "[Example 72, 6-[2-Amino-4-(2-methoxyphenyl)-5-pyrimidinyl]-2-methyl-3(2H)-pyridazinone]", "melting point": 225},
      {"smiles": "COc1cccc(-c2nc(N)ncc2-c2ccc(=O)n(C)n2)c1", "note": "[Example 73, 6-[2-Amino-4-(3-methoxyphenyl)-5-pyrimidinyl]-2-methyl-3(2H)-pyridazinone]", "melting point": 195},
      {"smiles": "Cn1nc(-c2cnc(N)nc2-c2ccccc2Br)ccc1=O", "note": "[Example 74, 6-[2-Amino-4-(2-bromophenyl)-5-pyrimidinyl]-2-methyl-3(2H)-pyridazinone]", "melting point": "> 250"},
      {"smiles": "CSc1nc(N)nc(-c2ccccc2)c1-c1ccc(=O)n(C(C)C)n1", "note": "[Example 78, 6-[2-amino-4-(methylthio)-6-phenyl-5-pyrimidinyl]-2-isopropyl-3(2H)-pyridazinone]", "melting point": "221 to 222"},
      {"smiles": "CC(C)n1nc(-c2c(-c3ccccc3)nc(N)nc2[S+](C)[O-])ccc1=O", "note": "(stereo not drawn) [Example 79, 6-[2-amino-4-(methylsulfinyl)-6-phenyl-5-pyrimidinyl]-2-isopropyl-3(2H)-pyridazinone]", "melting point": "225 to 227"},
      {"smiles": "CC(C)n1nc(-c2c(-c3ccccc3)nc(N)nc2S(C)(=O)=O)ccc1=O", "note": "[Example 79, 6-[2-amino-4-(methylsulfonyl)-6-phenyl-5-pyrimidinyl]-2-isopropyl-3(2H)-pyridazinone]", "melting point": "210 to 211"},
      {"smiles": "COc1nc(N)nc(-c2ccccc2)c1-c1ccc(=O)n(C(C)C)n1", "note": "[Example 80, 6-(2-amino-4-methoxy-6-phenyl-5-pyrimidinyl)-2-isopropyl-3(2H)-pyridazinone]", "melting point": "230 to 233"},
      {"smiles": "CCOc1nc(N)nc(-c2ccccc2)c1-c1ccc(=O)n(C(C)C)n1", "note": "[Example 81, 6-(2-amino-4-ethoxy-6-phenyl-5-pyrimidinyl)-2-isopropyl-3(2H)-pyridazinone]", "melting point": "187.5 to 188.5"},
      {"smiles": "CC(C)Oc1nc(N)nc(-c2ccccc2)c1-c1ccc(=O)n(C(C)C)n1", "note": "[Example 82, 6-(2-Amino-4-isopropoxy-6-phenyl-5-pyrimidinyl)-2-isopropyl-3(2H)-pyridazinone]", "melting point": "176.5 to 177.5"},
      {"smiles": "CC(C)n1nc(-c2c(OC3CCC3)nc(N)nc2-c2ccccc2)ccc1=O", "note": "[Example 83, 6-[2-Amino-4-(cyclobutyloxy)-6-phenyl-5-pyrimidinyl]-2-isopropyl-3(2H)-pyridazinone]", "melting point": "161 to 162.5"},
      {"smiles": "C=CCOc1nc(N)nc(-c2ccccc2)c1-c1ccc(=O)n(C(C)C)n1", "note": "[Example 84, 6-[4-(Allyloxy)-2-amino-6-phenyl-5-pyrimidinyl]-2-isopropyl-3(2H)-pyridazinone]", "melting point": "130.5 to 132.5"},
      {"smiles": "C#CCOc1nc(N)nc(-c2ccccc2)c1-c1ccc(=O)n(C(C)C)n1", "note": "[Example 85, 6-[2-amino-4-phenyl-6-(2-propynyloxy)-5-pyrimidinyl]-2-isopropyl-3(2H)-pyridazinone]", "melting point": "145 to 146.6"},
      {"smiles": "CC(C)n1nc(-c2c(OCCO)nc(N)nc2-c2ccccc2)ccc1=O", "note": "[Example 86, 6-[2-Amino-4-(2-hydroxyethoxy)-6-phenyl-5-pyrimidinyl]-2-isopropyl-3(2H)-pyridazinone]", "melting point": "182 to 183"},
      {"smiles": "COCCOc1nc(N)nc(-c2ccccc2)c1-c1ccc(=O)n(C(C)C)n1", "note": "[Example 87, 6-[2-Amino-4-(2-methoxyethoxy)-6-phenyl-5-pyrimidinyl]-2-isopropyl-3(2H)-pyridazinone]", "melting point": "128 to 130"},
      {"smiles": "CC(C)n1nc(-c2c(OCCN(C)C)nc(N)nc2-c2ccccc2)ccc1=O", "note": "[Example 88, 6-{2-Amino-4-[2-(dimethylamino)ethoxy]-6-phenyl-5-pyrimidinyl}-2-isopropyl-3(2H)-pyridazinone]", "melting point": "130 to 131.5"},
      {"smiles": "COC(=O)COc1nc(N)nc(-c2ccccc2)c1-c1ccc(=O)n(C(C)C)n1", "note": "[Example 89, methyl {[2-amino-5-(1-isopropyl-6-oxo-1,6-dihydro-3-pyridazinyl)-6-phenyl-4-pyrimidinyl]oxy}acetate]", "melting point": "150 to 152.5"},
      {"smiles": "CC(C)n1nc(-c2c(OCCN3C(=O)c4ccccc4C3=O)nc(N)nc2-c2ccccc2)ccc1=O", "note": "[Example 90, 2-(2-{[2-Amino-5-(1-isopropyl-6-oxo-1,6-dihydro-3-pyridazinyl)-6-phenyl-4-pyrimidinyl]oxy}-ethyl)-1H-isoindole-1,3(2H)-dione]", "melting point": "231.5 to 232.5"},
      {"smiles": "CCCOc1nc(N)nc(-c2ccccc2)c1-c1ccc(=O)n(C(C)C)n1", "note": "[Example 91, 6-(2-amino-4-phenyl-6-propoxy-5-pyrimidinyl)-2-isopropyl-3(2H)-pyridazinone]", "melting point": "127.5 to 129"},
      {"smiles": "CC(C)n1nc(-c2c(OCCF)nc(N)nc2-c2ccccc2)ccc1=O", "note": "[Example 92, 6-[2-Amino-4-(2-fluoroethoxy)-6-phenyl-5-pyrimidinyl]-2-isopropyl-3(2H)-pyridazinone]", "melting point": "129 to 130.5"},
      {"smiles": "CC(C)n1nc(-c2c(OCc3ccccc3)nc(N)nc2-c2ccccc2)ccc1=O", "note": "[Example 93, 6-[2-amino-4-(benzyloxy)-6-phenyl-5-pyrimidinyl]-2-isopropyl-3(2H)-pyridazinone]", "melting point": "162 to 163"},
      {"smiles": "CC(C)n1nc(-c2c(OCc3ccccn3)nc(N)nc2-c2ccccc2)ccc1=O", "note": "[Example 94, 6-[2-amino-4-phenyl-6-(2-pyridinylmethoxy)-5-pyrimidinyl]-2-isopropyl-3(2H)-pyridazinone]", "melting point": "177 to 178"},
      {"smiles": "CC(C)n1nc(-c2c(OC3CCCCC3)nc(N)nc2-c2ccccc2)ccc1=O", "note": "[Example 96, 6-[2-Amino-4-(cyclohexyloxy)-6-phenyl-5-pyrimidinyl]-2-isopropyl-3(2H)-pyridazinone]", "melting point": "173 to 175"},
      {"smiles": "CC(C)n1nc(-c2c(OC3CCOCC3)nc(N)nc2-c2ccccc2)ccc1=O", "note": "[Example 97, 6-[2-Amino-4-phenyl-6-(tetrahydro-2H-pyran-4-yloxy)-5-pyrimidinyl]-2-isopropyl-3(2H)-pyridazinone]", "melting point": "207 to 209"}
    ]}
  ]
}
